Measurements reported in PubChem BioAssay (NCI).
Values joined by “and” are separate entries in the source; they are usually repeats but may differ in a detail not shown here. Identical values can stand only once.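 Where inhibition never reached the appropriate level, the endpoint shown equals the highest concentration tested. Otherwise, values were interpolated linearly from a five-concentration, 48-hour dose response in 96-well plates. GI50 is the concentration that inhibits growth by half. TGI: total growth inhibition.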

system: HS 578T breast; assay: growth of human tumour cells (NCI), 48 h

| Compound | TGI | GI50 |
| --- | --- | --- |
| CC1(C)NC2C(=O)c3c([nH]c4ccccc34)[C@]3(C)CCC1CC23 (some centres undefined) | > 100 µM |  |
| COc1cc(/C=C2\C(=O)N(c3ccccc3)C(c3ccccc3)S2(=O)=O)cc(OC)c1OC (centres undefined) | > 100 µM |  |
| COc1ccc2ccccc2c1/C=C/C(=O)c1ccccc1 | 38.7 µM |  |
| C[C@]12CCC(=O)O[C@H]1CCCCO2 | > 100 µM |  |
| Cc1nc(-c2cc3cc([N+](=O)[O-])ccc3oc2=O)cs1 | > 100 µM |  |
| CC(C)=CCC/C(C)=C/C=C/C(C)=C/C=C/C(C)=C/C=C/C=C(C)/C=C/C=C(C)/C=C/[C@H]1C(C(C)(C)O)CC[C@]1(C)O (some centres undefined) | 59.1 µM |  |
| O=C1C(CN2CCCCC2)CCC1CN1CCCCC1 (centres undefined) | > 73.2 µM |  |
| CC1=NNC(N)=N/C1=C\C(Sc1ccc(Cl)cc1)c1ccc([N+](=O)[O-])cc1 (centres undefined) | > 100 µM |  |
| c1ccc2c(c1)ccn2CCc1c[nH]c2ccccc12 | > 10 µM |  |
| CC(C)[Si](OC1=C(C(=O)N(C)c2cccc(Cl)c2)CCCC1)(C(C)C)C(C)C | 30.3 µM |  |
| Cc1ccc([N+](=O)[O-])cc1S(=O)(=O)Nc1ccc(C2=NNC(c3ccccc3)C2)cc1 (centres undefined) | > 100 µM |  |
| COc1cc(C(=O)N(Cc2cccnc2)C(=S)N(Cc2cccnc2)C(=O)c2cc(OC)c(OC)c(OC)c2)cc(OC)c1OC | > 100 µM |  |
| COc1cc(CNCc2cc(OC)c(OC)c(OC)c2)cc(OC)c1OC | > 10 µM |  |
| Cc1ccc2c(c1)C(C(=O)N[C@@H]1C(=O)N3[C@@H]1SC(C)(C)[C@@H]3C(=O)O)OCCC2 (some centres undefined) | > 100 µM |  |
| O=Cc1ccc2c(c1)CC1(Cc3ccccc3C1)C2 | > 100 µM |  |
| O=C(N/N=C\c1cccc2c([N+](=O)[O-])cccc12)Nc1ccccc1 | 33.5 µM |  |
| CC(=O)OCC12C(=O)C[C@@H](C)C3(CC(c4ccoc4)OC3=O)C1CCC(OC(C)=O)C21CO1 (some centres undefined) | > 100 µM |  |
| CON(C)C(=O)CNC(=O)OCC1c2ccccc2-c2ccccc21 | > 100 µM |  |

| Compound | TGI | GI50 |
| --- | --- | --- |
| O=C(NNC(=S)Nc1cccc(Cl)c1)c1cc(-c2ccccc2)nc2ccccc12 | 41.9 µM |  |
| CCOC(=O)C(=Cc1[nH]c2ccccc2c1-c1c[nH]c2ccccc12)C(=O)OCC | 91.3 µM |  |
| Cc1cn(C2CC(N(O)Cc3ccccc3)C(CO[Si](C)(C)C(C)(C)C)O2)c(=O)[nH]c1=O (centres undefined) | 41.6 µM and 34.5 µM |  |
| O=C1/C(=N/O)Cc2c(Br)ccc(Br)c21 | > 100 µM |  |
| CSc1ncnc2c1ncn2C1CC(Oc2ccc(C)cc2)C(COc2ccc(C)cc2)O1 (centres undefined) | > 100 µM |  |
| Cc1ccc(N=Nc2c(O)ccc3cc(S(=O)(=O)O)cc(S(=O)(=O)O)c23)cc1 | > 100 µM |  |
| COc1ccc(C2OC[C@H]3O[C@@H](OCc4ccccc4)[C@H](O)[C@@H](O)[C@@H]3O2)cc1 (some centres undefined) | > 100 µM |  |
| O=C(O)Cc1cccc2c(=O)c3ccccc3oc12 | > 100 µM |  |
| O=C(O)c1ccc([N+](=O)[O-])c2cc3cnccc3nc12 | 65.6 µM |  |
| CCOC(=O)N/N=C(/N)c1cccc([N+](=O)[O-])c1 | > 100 µM |  |
| Cc1cc(S(=O)(=O)N=C2N(Cc3ccccc3)CCN2Cc2ccccc2)c(S)cc1Cl | > 100 µM |  |
| Oc1ccc(-c2nc(-c3cccnc3)c(-c3ccc(Cl)cc3)[nH]2)cc1 | 56 µM |  |
| CCCN1CCC(=O)N(CCC(F)(F)C(F)(F)C(F)(F)C(F)(F)C(F)(F)C(F)(F)F)C1=S | > 100 µM |  |
| CSc1ccc2c(cc1=O)[C@@H](NC(=O)c1ccc(N)cc1)CCc1cc(O)c(O)c(O)c1-2 | > 75 µM and 43.6 µM | 24.3 µM and 10.2 µM |
| CN1CCC(O)(C(C)(C)C)CC1 | > 100 µM |  |
| Cn1cc(NC(=O)c2cc(NC(=O)CN=C(N)N)cn2C)cc1C(=O)NCCC(=N)N | > 100 µM |  |
| N=C(N)c1ccc(C(NC(=O)CNS(=O)(=O)c2ccc3ccccc3c2)P(=O)(Oc2ccccc2)Oc2ccccc2)cc1 (centres undefined) | > 100 µM |  |
| Cn1c2c(c3ccccc31)CC1c3c(c4ccccc4n3C)CC21 (centres undefined) | > 100 µM |  |

system: K-562 leukemia; assay: growth of human tumour cells (NCI), 48 h

| Compound | TGI [µM] |
| --- | --- |
| CCN(CC)C(=O)Cn1c(C)cc2ccccc21 | > 100 |
| CC1(C)NC2C(=O)c3c([nH]c4ccccc34)[C@]3(C)CCC1CC23 (some centres undefined) | > 100 |
| COc1cc(/C=C2\C(=O)N(c3ccccc3)C(c3ccccc3)S2(=O)=O)cc(OC)c1OC (centres undefined) | > 100 |
| COc1ccc2ccccc2c1/C=C/C(=O)c1ccccc1 | 6.28 |
| C[C@]12CCC(=O)O[C@H]1CCCCO2 | > 100 |
| Cc1nc(-c2cc3cc([N+](=O)[O-])ccc3oc2=O)cs1 | > 100 |
| CC(C)=CCC/C(C)=C/C=C/C(C)=C/C=C/C(C)=C/C=C/C=C(C)/C=C/C=C(C)/C=C/[C@H]1C(C(C)(C)O)CC[C@]1(C)O (some centres undefined) | 63.6 |
| CC1=NNC(N)=N/C1=C\C(Sc1ccc(Cl)cc1)c1ccc([N+](=O)[O-])cc1 (centres undefined) | > 100 |
| c1ccc2c(c1)ccn2CCc1c[nH]c2ccccc12 | > 10 |
| CC(C)[Si](OC1=C(C(=O)N(C)c2cccc(Cl)c2)CCCC1)(C(C)C)C(C)C | 71.3 |
| Cc1ccc([N+](=O)[O-])cc1S(=O)(=O)Nc1ccc(C2=NNC(c3ccccc3)C2)cc1 (centres undefined) | 85 |
| COc1cc(C(=O)N(Cc2cccnc2)C(=S)N(Cc2cccnc2)C(=O)c2cc(OC)c(OC)c(OC)c2)cc(OC)c1OC | > 100 |
| COc1cc(CNCc2cc(OC)c(OC)c(OC)c2)cc(OC)c1OC | > 7.36 |
| Cc1ccc2c(c1)C(C(=O)N[C@@H]1C(=O)N3[C@@H]1SC(C)(C)[C@@H]3C(=O)O)OCCC2 (some centres undefined) | > 100 |
| O=Cc1ccc2c(c1)CC1(Cc3ccccc3C1)C2 | 44.9 |
| O=C(N/N=C\c1cccc2c([N+](=O)[O-])cccc12)Nc1ccccc1 | 43.5 |
| CC(=O)OCC12C(=O)C[C@@H](C)C3(CC(c4ccoc4)OC3=O)C1CCC(OC(C)=O)C21CO1 (some centres undefined) | > 100 |
| CON(C)C(=O)CNC(=O)OCC1c2ccccc2-c2ccccc21 | > 100 |

| Compound | TGI [µM] |
| --- | --- |
| O=C(NNC(=S)Nc1cccc(Cl)c1)c1cc(-c2ccccc2)nc2ccccc12 | > 100 |
| CCOC(=O)C(=Cc1[nH]c2ccccc2c1-c1c[nH]c2ccccc12)C(=O)OCC | 26.6 |
| Cc1cn(C2CC(N(O)Cc3ccccc3)C(CO[Si](C)(C)C(C)(C)C)O2)c(=O)[nH]c1=O (centres undefined) | > 100 |
| O=C1/C(=N/O)Cc2c(Br)ccc(Br)c21 | 84.5 |
| Cc1ccc(N=Nc2c(O)ccc3cc(S(=O)(=O)O)cc(S(=O)(=O)O)c23)cc1 | > 100 |
| COc1ccc(C2OC[C@H]3O[C@@H](OCc4ccccc4)[C@H](O)[C@@H](O)[C@@H]3O2)cc1 (some centres undefined) | > 100 |
| O=C(O)Cc1cccc2c(=O)c3ccccc3oc12 | > 100 |
| O=C(O)c1ccc([N+](=O)[O-])c2cc3cnccc3nc12 | 36.5 |
| CCOC(=O)N/N=C(/N)c1cccc([N+](=O)[O-])c1 | > 100 |
| Cc1cc(S(=O)(=O)N=C2N(Cc3ccccc3)CCN2Cc2ccccc2)c(S)cc1Cl | > 100 |
| Oc1ccc(-c2nc(-c3cccnc3)c(-c3ccc(Cl)cc3)[nH]2)cc1 | > 100 |
| CCCN1CCC(=O)N(CCC(F)(F)C(F)(F)C(F)(F)C(F)(F)C(F)(F)C(F)(F)F)C1=S | > 100 |
| CSc1ccc2c(cc1=O)[C@@H](NC(=O)c1ccc(N)cc1)CCc1cc(O)c(O)c(O)c1-2 | > 100 |
| CN1CCC(O)(C(C)(C)C)CC1 | > 100 |
| Cn1cc(NC(=O)c2cc(NC(=O)CN=C(N)N)cn2C)cc1C(=O)NCCC(=N)N | > 100 |
| N=C(N)c1ccc(C(NC(=O)CNS(=O)(=O)c2ccc3ccccc3c2)P(=O)(Oc2ccccc2)Oc2ccccc2)cc1 (centres undefined) | > 100 |
| Cn1c2c(c3ccccc31)CC1c3c(c4ccccc4n3C)CC21 (centres undefined) | > 100 |

system: MDA-MB-435; assay: growth of human tumour cells (NCI), 48 h

| Compound | TGI |
| --- | --- |
| CCN(CC)C(=O)Cn1c(C)cc2ccccc21 | > 100 µM |
| CC1(C)NC2C(=O)c3c([nH]c4ccccc34)[C@]3(C)CCC1CC23 (some centres undefined) | > 100 µM |
| COc1cc(/C=C2\C(=O)N(c3ccccc3)C(c3ccccc3)S2(=O)=O)cc(OC)c1OC (centres undefined) | > 100 µM |
| COc1ccc2ccccc2c1/C=C/C(=O)c1ccccc1 | 7.18 µM |
| C[C@]12CCC(=O)O[C@H]1CCCCO2 | > 100 µM |
| Cc1nc(-c2cc3cc([N+](=O)[O-])ccc3oc2=O)cs1 | > 100 µM |
| CC(C)=CCC/C(C)=C/C=C/C(C)=C/C=C/C(C)=C/C=C/C=C(C)/C=C/C=C(C)/C=C/[C@H]1C(C(C)(C)O)CC[C@]1(C)O (some centres undefined) | 61.2 µM |
| O=C1C(CN2CCCCC2)CCC1CN1CCCCC1 (centres undefined) | 51.8 µM |
| CC1=NNC(N)=N/C1=C\C(Sc1ccc(Cl)cc1)c1ccc([N+](=O)[O-])cc1 (centres undefined) | > 100 µM |
| c1ccc2c(c1)ccn2CCc1c[nH]c2ccccc12 | > 10 µM |
| CC(C)[Si](OC1=C(C(=O)N(C)c2cccc(Cl)c2)CCCC1)(C(C)C)C(C)C | 29 µM |
| Cc1ccc([N+](=O)[O-])cc1S(=O)(=O)Nc1ccc(C2=NNC(c3ccccc3)C2)cc1 (centres undefined) | 44.6 µM |
| COc1cc(C(=O)N(Cc2cccnc2)C(=S)N(Cc2cccnc2)C(=O)c2cc(OC)c(OC)c(OC)c2)cc(OC)c1OC | > 100 µM |
| COc1cc(CNCc2cc(OC)c(OC)c(OC)c2)cc(OC)c1OC | > 10 µM |
| Cc1ccc2c(c1)C(C(=O)N[C@@H]1C(=O)N3[C@@H]1SC(C)(C)[C@@H]3C(=O)O)OCCC2 (some centres undefined) | > 100 µM |
| O=Cc1ccc2c(c1)CC1(Cc3ccccc3C1)C2 | 37.6 µM |
| O=C(N/N=C\c1cccc2c([N+](=O)[O-])cccc12)Nc1ccccc1 | 25 µM |
| CC(=O)OCC12C(=O)C[C@@H](C)C3(CC(c4ccoc4)OC3=O)C1CCC(OC(C)=O)C21CO1 (some centres undefined) | > 100 µM |
| CON(C)C(=O)CNC(=O)OCC1c2ccccc2-c2ccccc21 | > 100 µM |

| Compound | TGI |
| --- | --- |
| O=C(NNC(=S)Nc1cccc(Cl)c1)c1cc(-c2ccccc2)nc2ccccc12 | 33.4 µM |
| CCOC(=O)C(=Cc1[nH]c2ccccc2c1-c1c[nH]c2ccccc12)C(=O)OCC | 18.3 µM |
| Cc1cn(C2CC(N(O)Cc3ccccc3)C(CO[Si](C)(C)C(C)(C)C)O2)c(=O)[nH]c1=O (centres undefined) | 33.1 µM and 31.9 µM |
| O=C1/C(=N/O)Cc2c(Br)ccc(Br)c21 | > 100 µM |
| CSc1ncnc2c1ncn2C1CC(Oc2ccc(C)cc2)C(COc2ccc(C)cc2)O1 (centres undefined) | > 100 µM |
| Cc1ccc(N=Nc2c(O)ccc3cc(S(=O)(=O)O)cc(S(=O)(=O)O)c23)cc1 | > 100 µM |
| COc1ccc(C2OC[C@H]3O[C@@H](OCc4ccccc4)[C@H](O)[C@@H](O)[C@@H]3O2)cc1 (some centres undefined) | > 100 µM |
| O=C(O)Cc1cccc2c(=O)c3ccccc3oc12 | > 100 µM |
| O=C(O)c1ccc([N+](=O)[O-])c2cc3cnccc3nc12 | > 100 µM |
| CCOC(=O)N/N=C(/N)c1cccc([N+](=O)[O-])c1 | > 100 µM |
| Cc1cc(S(=O)(=O)N=C2N(Cc3ccccc3)CCN2Cc2ccccc2)c(S)cc1Cl | > 100 µM |
| Oc1ccc(-c2nc(-c3cccnc3)c(-c3ccc(Cl)cc3)[nH]2)cc1 | 25.5 µM |
| CCCN1CCC(=O)N(CCC(F)(F)C(F)(F)C(F)(F)C(F)(F)C(F)(F)C(F)(F)F)C1=S | > 100 µM |
| CSc1ccc2c(cc1=O)[C@@H](NC(=O)c1ccc(N)cc1)CCc1cc(O)c(O)c(O)c1-2 | 51 µM and > 100 µM |
| CN1CCC(O)(C(C)(C)C)CC1 | > 100 µM |
| Cn1cc(NC(=O)c2cc(NC(=O)CN=C(N)N)cn2C)cc1C(=O)NCCC(=N)N | > 100 µM |
| N=C(N)c1ccc(C(NC(=O)CNS(=O)(=O)c2ccc3ccccc3c2)P(=O)(Oc2ccccc2)Oc2ccccc2)cc1 (centres undefined) | > 100 µM |
| Cn1c2c(c3ccccc31)CC1c3c(c4ccccc4n3C)CC21 (centres undefined) | > 100 µM |
